From patent US7112422B2, “Fluorometric assay for detecting nucleic acid cleavage” (Georgetown University, priority 1994, dated 2006)
{FITC} = fluorescein isothiocyanate through the Aminolink 2 six-carbon amine linker

B1: F-D1/T1: 5′-TGAGTACCCGTGTGGAAAATCTCTAGCAGGGNCTATGGCGTCCCCTCTG (SEQ ID NO:3); E-D2: 3′-… (SEQ ID NO:4) (nucleic acid)
sense: TGAGTACCCGTGTGGAAAATCTCTAGCAGGGNCTATGGCGTCCCCTCTG
antisense: NACTGCTAGAGATTTTCCACACGGGTACTCA
modifications: FITC and EITC labels, chemistry not fully specified
notes: FITC-labeled 49-mer hybrid strand of HIV-1 U5 end annealed to EITC-labeled partial complementary strand

Experiments:
[1] = target: T1, BamHI restriction endonuclease (Bacillus amyloliquefaciens, UniProt P23940); assay: BamHI cleavage of FITC-labeled DNA substrate, native 20% PAGE with densitometry; type: biochemical, Bacillus amyloliquefaciens H; settings: 10 units BamHI in 100 μl, 37° C.
T1 construct: purchased New England Biolab
Protocol: (§1) Cleavage reactions were also examined as a function of substrate concentration with a fixed concentration of BamHI (10 units in 100 μl total reaction volume). The reactions were initiated by the addition of BamHI and stopped by the addition of 25 mM EDTA 11 minutes after the enzyme was added. The reaction mixtures were subjected to native 20% polyacrylamide gel analysis. Since the DNA substrate was labeled with FITC, a photograph of the gel was taken under ultraviolet illumination (using a Kodak green filter) without staining the gel with ethidium bromide. Therefore, only the fluorescent-labeled DNA fragments were visualized, resulting in two DNA bands: a substrate band and a product band (5′-FITC-NH-CCCCG). A direct comparison was made between the data obtained from the fluorometric assay and the photographic data obtained from gel electrophoretic analysis. The kinetics of BamHI cleavage reactions as a function of DNA substrate concentration measured by fluorometric analysis are illustrated in FIG. 7A. […] Similarly, the reaction at 0.36 μM substrate reached near completion as shown by both the fluorescence (curve B, FIG. 7A) and the gel data (lane B, FIG. 7B). Higher DNA substrate concentrations, 0.72 μM (curve C, FIG. 7A) and 1.08 μM (curve D, FIG. 7A), yielded incomplete cleavage reactions (observed by changes in fluorescence intensity). […] It appears that the initial velocity of curve D is also slower than that of curve C. […] As expected, the PAGE data (FIG. 7B) show higher product formation in lane C compared to that of lane D.
The fractions of uncleaved and cleaved DNA were calculated from the fluorescence data utilizing equation 1 (see Methods). Fractions of uncleaved and cleaved DNA were also estimated from a photograph taken from the polyacrylamide gel. Utilizing a Hewlett Packard ScanJet IIp and the densitometry program Scan Analysis 68000 (BioSoft), the peaks obtained from each of the bands (substrate and products) were integrated and ratioed to obtain the relative amount of cleavage.

[2] = target: T1, BamHI restriction endonuclease; assay: BamHI cleavage of FITC-labeled DNA substrate, continuous fluorometric (dequenching) assay; type: biochemical, Bacillus amyloliquefaciens H; settings: 10 units BamHI in 100 μl, 37° C.
Protocol: Spectroscopic Measurements: Absorbance and absorption spectra were measured with a Hewlett-Packard 8450A diode array spectrophotometer. Using the extinction coefficient of fluorescein (E-78,000) at 492 nm, the concentration and total moles of fluorescein were calculated (Chen and Scott, supra). The amount of fluorescein conjugated to the oligonucleotide was estimated by subtracting the moles of fluorescein multiplied by the extinction coefficient of FITC at 260 nm, 23,000 M^−1 cm^−1, from the total absorbance at 260 nm. The remaining AU260 should be proportional to the DNA content. Steady-state fluorescence spectra and intensity were recorded with an SLM 8000 spectrophotofluorometer with 10-mm Glan-Thompson polarizers. Fluorescence emission measurements were performed under “magic angle” emission conditions (Spencer and Weber, J. Chem. Phys. 52:1654–1663 (1970)). A cuvette with a 3-mm excitation path length was used for all experiments. The absorbance of all fluorescence samples was less than 0.1 at the wavelength of excitation to avoid inner-filter effects. The temperatures of the samples were regulated with a Neslab Instruments, Inc., T.E.Q. temperature controller and a PBC4 bath cooler.
The extent of cleavage by BamHI was calculated from the fluorescence data utilizing the following equation:
[formula] where [DNA]c is the concentration of cleaved DNA, Ft is the fluorescence intensity at time, t, F∞is the fluorescence intensity at the plateau, F0 is the initial fluorescence intensity, and [DNA]i is the initial concentration of DNA. Results and Discussion
as §1
The fractions of uncleaved and cleaved DNA were calculated from the fluorescence data utilizing equation 1 (see Methods). Fractions of uncleaved and cleaved DNA were also estimated from a photograph taken from the polyacrylamide gel. […]

[3] = target: T2, HIV-IN (Human immunodeficiency virus type 1 group M subtype B, UniProt P12497); assay: HIV-IN cleavage of fluorogenic substrate monitored by FRET; type: biochemical
T2 construct: The wild-type HIV-integrase protein was obtained from Dr. Robert Craigie; made in house; host or cells: Escherichia coli
Protocol: FIGS. 10A and 10B: FIG. 10A is a graph depicting steady-state emission spectra of a fluorogenic substrate in the presence and absence of HIV-IN. Curve A depicts the emission spectrum of 4 pmol of fluorogenic substrate in 400 μl reaction buffer containing 25 mM HEPES, pH 7.5, 50 mM NaCl, 2 mM DTT, and 5% glycerol at 37° C. Curve B depicts the emission spectrum of the same substrate digested with 40 pmol HIV-IN for 1 hour. Curve C depicts the difference emission spectrum of curve B and curve A. Emission spectra were recorded with an excitation wavelength at 460 nm.
FIGS. 11A, 11B, and 11C: FIG. 11A is a graph depicting the kinetics of an HIV-IN cleavage reaction of a fluorogenic substrate monitored by FRET. The DNA cleavage reaction was initiated by the addition of HIV-IN to a preincubated reaction mixture containing 4 pmol of substrate. The conditions for the reactions are the same as in FIG. 10. Changes in fluorescence intensity were monitored with excitation and emission wavelengths of 460 and 510 nm, respectively. Mn^2+ quenched the fluorescence intensity of the substrate in the absence of the enzyme; thus, the kinetic data presented in this figure were intensity normalized according to the intensity ratio of the substrate in the presence of Mg^2+ and in the presence of Mn^2+. FIG. 11B depicts the kinetics of an HIV-IN cleavage reaction of a fluorogenic substrate monitored by denaturing polyacrylamide gel electrophoresis (PAGE). The time course of a ^32P-5′-labeled fluorescent substrate was determined by radiographic assays. […] Reaction mixtures were analyzed by denaturing gel electrophoresis. Results were quantitated by utilizing a Hewlet-Packard ScanJet IIp and the densitometry program Scan Analysis 68020 (BioSoft). […]
Spectroscopic Measurements: Absorbance and absorption spectra were measured with a Hewlett-Packard 8450A diode array spectrophotometer. Steady-state fluorescence spectra and intensity were recorded with an SLM 8000 spectrophotofluorometer with 10-mm Glan-Thompson polarizers. […]

[4] = Curve A, [DNA] 0.21 μM, stopped after 11 minutes
[5] = Curve B, [DNA] 0.36 μM, stopped after 11 minutes
[6] = Curve C, [DNA] 0.72 μM, stopped after 11 minutes
[7] = Curve D, [DNA] 1.08 μM, stopped after 11 minutes
[8] = Curve E, [DNA] 0.18 μM, in the presence of 25 mM EDTA

T1 sequence (P23940 whole entry): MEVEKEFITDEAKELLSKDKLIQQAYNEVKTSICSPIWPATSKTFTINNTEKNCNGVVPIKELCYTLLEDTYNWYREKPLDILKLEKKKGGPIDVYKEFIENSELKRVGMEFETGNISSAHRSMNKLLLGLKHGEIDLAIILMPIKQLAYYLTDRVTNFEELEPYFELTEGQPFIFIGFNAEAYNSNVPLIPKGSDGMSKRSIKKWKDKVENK

| Molecule | % Cleavage PAGE [1, 4] [%] | % Cleavage PAGE [1, 5] [%] | % Cleavage PAGE [1, 6] [%] | % Cleavage PAGE [1, 7] [%] | % Cleavage PAGE [1, 8] [%] | % Cleavage Fluorescence Assay [2, 4] [%] | % Cleavage Fluorescence Assay [2, 5] [%] | % Cleavage Fluorescence Assay [2, 6] [%] | % Cleavage Fluorescence Assay [2, 7] [%] | % Cleavage Fluorescence Assay [2, 8] [%] | estimated efficiency of the cleavage reaction by HIV-IN ([3]; 4 pmol substrate, 40 pmol HIV-IN, 1 hour, 37° C., in the presence of Mg2+, relative to DNase I digestion) [%] | changes in donor fluorescence with Mg2+ relative to Mn2+ ([3]; 7.5 mM Mg2+ vs 7.5 mM Mn2+, end of a 60 minute reaction, intensity normalized) | cleavage of substrate by integrase (increase in fluorescence intensity) ([3]; in the presence of 20 mM EDTA, 37° C.) |
| --- | --- | --- | --- | --- | --- | --- | --- | --- | --- | --- | --- | --- | --- |
| 5′-FITC-NH-CCCCGGATCCACCC-3′ (SEQ ID NO:1) annealed to 3′-GGGGCCTAGGTGGG-5′ (SEQ ID NO:2) (antisense GGGTGGATCCGGGG; sense: DNA, 5' {FITC}, backbone and methylation of C not given here; antisense: DNA, backbone and methylation of C not given here; further chemistry not fully specified) [FITC-labeled DNA Substrates, 14-mer FITC-labeled oligonucleotide with the BamHI restriction site, annealed to its unlabeled complementary strand] | 100 | 92.3 | 60.6 | 30.1 | 0 | 100 | 91.9 | 59.5 | 32.2 | 0 |  |  |  |
| B1 |  |  |  |  |  |  |  |  |  |  | 35 | approximately 3 times | not cleaved |
